# Assays:
# [1] = system: rat auricular subcutaneous blood vessel; test: Vasodilation of rat auricular subcutaneous blood vessel after intravenous administration; assay type: in vivo
# Excerpt: Oxidative stress caused by reactive oxygen species is known to reduce NO production in vascular endothelial cells, resulting in vasoconstriction and decreased blood flow. Therefore, using vasodilation as an indicator, it was examined whether the antioxidant of the present invention scavenges reactive oxygen species in vivo.
# Eight-week old or older female rats (Wistar, body weight: approximately 200 g, n=1) were anesthetized by subcutaneous administration of urethane so as to be […] body weight. The hair of the auricles of the rats was then removed and the rats were fixed on a fixing table. […]
# BisEP-C3 was dissolved in a saline solution to achieve a concentration of 3 mg/ml. […] Then, the hemodynamic course of the rat auricular subcutaneous blood vessel was photographed and recorded using a microscope at a predetermined period of time (30, 60, 120 or 180 minutes) before and after the administration.
# The obtained images were classified into three blood vessel thicknesses (thick: 35-45 μm, medium: 15-20 μm, thin: 7-9 μm) based on the diameter of the blood vessel before administration. […] Further, for each selected site, the relative blood vessel diameter was calculated after the measurement of the blood vessel diameter, with the blood vessel diameter before administration being a reference (1). […]
# [2] = system: mesentery blood vessels of rats given lipopolysaccharide; test: LPS-induced mesenteric bleeding and leukocyte rolling in rats; assay type: in vivo, rat
# Excerpt: Administration of lipopolysaccharide to the mesentery vicinity blood vessels generates reactive oxygen species (ROS), causing vascular disorder and bleeding. Therefore, using the bleeding area as an indicator, it was examined whether the antioxidant of the present invention scavenges ROS in vivo.
# Eight-week old or older female rats (Wistar, body weight: approximately 200 g, n=1) were anesthetized by subcutaneous administration of urethane (1.75 g/kg body weight). The rats were then opened and fixed on a fixing table in such a manner that the mesentery of the rats was observable. After the fixing, the fixing table was placed under a microscope (Nikon OPTIphoto, produced by Nikon Corporation) so that the mesentery could be observed. In addition, a catheter was placed in the groin vein of the rat.
# 1 μg/ml of lipopolysaccharide ((LPS), produced by Sigma-Aldrich Co., Ltd.) derived from Pseudomonas aeruginosa (ATCC27316) was added dropwise once (20 μL, 20 ng/sight) and allowed to stand for 30 minutes. […] In the obtained photograph, the area of the region where bleeding occurred (bleeding area) was detected based on the number of pixels, and then the proportion of the area (bleeding area proportion) occupied per visual field was calculated. […]
smiles,measurement,setting,value
"CCN1N=C(C)/C(=C\C=C\c2c(C)nn(CC)c2O)C1=O (racemic) [BisEp-C3, 2,4-dihydro-4-[3-(1-ethyl-5-hydroxy-3-methyl-1H-pyrazol-4-yl)-2-propen-1-ylidene]-2-ethyl-5-methyl-3H-pyrazol-3-one]",relative value of the blood vessel diameter,"[1]; 3 mg/kg body weight intravenously, 30, 60, 120 or 180 minutes, vs saline control, n=1, FIG. 10",dilated at any time after administration as compared to the control
same,severity of dilatation of the blood vessel diameter by blood vessel size,"[1]; 3 mg/kg intravenously, thick 35-45 μm, medium 15-20 μm, thin 7-9 μm",remarkably observed in the smaller blood vessels
same,bleeding area / bleeding area proportion,"[2]; rat mesentery, LPS 20 ng/sight, 1 mg/kg intravenously then 1 mg/kg per hour, up to 180 minutes, n=1, FIGS. 12 and 13",no bleeding was observed after the LPS administration
same,rolling phenomena of leukocytes in the blood vessel,"[2]; rat, after LPS instillation, compared to the control",a large number of rolling phenomena of leukocytes were observed

# From patent US20220110916A1, “Antioxidant and Use Thereof” (Bioradical Research Institute Corp., priority 2019, published 2022)
